Test results taken from patent publication US20110294890A1, “Neramexane for the treatment or prevention of inner ear disorders” (MERZ PHARMA GmbH & CO. KGaA, priority 2010, published 2011).

Test system: subjects with subjective tinnitus of at least moderate severity
Assay: Double blind placebo controlled Phase III clinical trial of neramexane for treatment of tinnitus (TBF-12 total score)
Format: in vivo, human
Details: for Change in the TBF-12 total score from baseline to Week 17/EOT, LSmean: 50/75 mg/d, mean adjusted for covariates (ANCOVA); for Change in the TBF-12 total score from baseline to Week 17/EOT, LSmean / Change in the TBF-12 total score from baseline to Week 17/EOT, Mean change (SD): 17 weeks; for Change in the TBF-12 total score from baseline to Week 17/EOT, LSmean / Change in the TBF-12 total score from baseline to Week 17/EOT, Mean change (SD) / Comparison between treatment groups, LSmean (ner − pla), change in TBF-12 total score: FAS-LOCF; for Change in the TBF-12 total score from baseline to Week 17/EOT, Mean change (SD): neramexane mesylate 50/75 mg/d by body weight; for Comparison between treatment groups, LSmean (ner − pla), change in TBF-12 total score: estimated difference Neramexane − Placebo from ANCOVA
Protocol: The objective of this clinical trial was to assess the efficacy of neramexane as a treatment for tinnitus. The primary objective of this 17 weeks double-blind, randomized placebo-controlled study was to compare the efficacy, tolerability and safety of neramexane mesylate at two different, weight-adapted dosages (50 or 75 mg/d) with placebo in subjects with subjective tinnitus of at least moderate severity.
In a double-blind, multicenter, randomized, placebo-controlled, parallel-group study, the efficacy of neramexane in subjects suffering from tinnitus of at least moderate severity was assessed. A total of 411 patients, who fulfilled particular inclusion criteria and met none of particular exclusion criteria, were randomized to one of two double-blind treatment groups (neramexane mesylate 50 or 75 mg/d depending on body weight, or placebo).
Subjects were treated for 17 weeks with neramexane or placebo including a four- resp. five-week up-titration period, depending on study drug dose, followed by 30 to 35 days treatment-free observational period. Alternatively to treatment-free observational period, subjects could immediately at Week 17 start with a one-year open label treatment study.
Main inclusion criteria were: • Diagnosis of “subjective tinnitus” • Tinnitus duration of at least 3 months and less or equal to 12 months (subacute tinnitus) • Persistent, uni- or bilateral tinnitus • THI-12≧9 (=at least moderate tinnitus severity) • Hospital Anxiety and Depression (HADS) subscores for depression ≦10 and for anxiety ≦10
Main exclusion criteria were: • Intermittent or pulsatile tinnitus • Tinnitus as a concomitant symptom of an otological/neurological disease • Concomitant tinnitus treatment • Application for a pension/retirement pay or granted pension/retirement because of tinnitus.
Patients with a target daily dose of 50 mg neramexane mesylate (<90 kg body weight) were to reach steady state after four weeks, patients with a target total daily dose of 75 mg neramexane mesylate (≧90 kg body weight) were to reach steady state after five weeks of treatment. For patients who experienced dose limiting adverse events with the 75 mg dose, the dosage was reduced by switching the patient to 50 mg/day. Patients unable to tolerate a minimum dosage of 50 mg/day discontinued.
Patient eligibility for the study was evaluated via a check of inclusion/exclusion criteria. The subject completed a Tinnitus-Beeinträchtigungs-Fragebogen (TBF-12=Tinnitus. Handicap Inventory (THI-12)) (i.e., a 12-item modified and validated version (Greimel K V et al., Tinnitus-Beeinträchtigungs-Fragebogen (TBF-12). Manual. Frankfurt am Main: Swets & Zeitlinger B. V.; 2000) of the 25-item Tinnitus Handicap Inventory or THI (Newman C W, et al. Development of the Tinnitus Handicap Inventory. Arch Otolaryngol Head Neck Surg 1996; 122(2): 143-148; Newman C W, et al. Psychometric adequacy of the Tinnitus Handicap Inventory (THI) for evaluating treatment outcome. J Am Acad Audiol 1998; 9(2): 153-160.)). The TBF-12 items can be grouped in 2 factorial scores: an emotional-cognitive and a functional-communicational factor. At Visit 1. patients also completed a Tinnitus Rating Scale (TRS, Likert scores on Tinnitus Loudness, Tinnitus Impact on Life, and Tinnitus Annoyance), and the Hospital Anxiety and Depression Scale Audiology/psychoacoustic measurements were performed unless results from previous examinations performed no more than one year prior to Screening were available.
Visit 7 (Week 17, end of treatment (EOT)). This visit occurred at the end of the 12-week fixed-dose double-blind treatment period. This visit was also to be performed for patients who discontinued prematurely. The subject was asked about adverse events and changes in concomitant medication/disease, which changes are documented. A clinical laboratory evaluation was performed as well as ECG and physical examination (including body weight). Blood samples were collected in order to determine neramexane concentration. […]

`CC1(C)CC(C)(C)CC(C)(N)C1` [Neramexane, 1-amino-1,3,3,5,5-pentamethylcyclohexane] was tested, and the “Change in the TBF-12 total score from baseline to Week 17/EOT, LSmean” value (Females, N=74) was −3.8, the “Change in the TBF-12 total score from baseline to Week 17/EOT, Mean change (SD)” value (Females, N=74) was −3.1 (4.2) and the “Comparison between treatment groups, LSmean (ner − pla), change in TBF-12 total score” value (Females, P-value 0.0122) was −1.7. The “Change in the TBF-12 total score from baseline to Week 17/EOT, LSmean” value (Total population, N=203) was −3.0, the “Change in the TBF-12 total score from baseline to Week 17/EOT, Mean change (SD)” value (Total population, N=203) was −2.5 (4.3) and the “Comparison between treatment groups, LSmean (ner − pla), change in TBF-12 total score” value (Total population, P-value 0.1997) was −0.5. The “Improvement for the treatment of tinnitus in subgroups of women” value (women 26 to 65 or 46 to 65 years of age, and/or free from clinical signs of depression (HADS-D 7 or less)) was “an improvement” and the “Improvement for the treatment of tinnitus in women (TBF-12 total score)” value (women, compared to the effect found for the total patient population) was “statistically significant improvement”.
